# Source: US7354921B2, “Pyrazolotriazines as kinase inhibitors” (Schering Corporation, priority 2004, dated 2008)
# pIC50: −log10 of the molar value.
# Target: T1, CDK2 (Homo sapiens, UniProt P24941)
# T1 construct: The expressed protein is approximately 34 kDa in size; made in house; host or cells: SF9 insect cells (recombinant baculovirus, pFASTBAC)
# Experiment: CDK2 in vitro kinase assay (cyclin A or E-dependent), 33P-ATP SPA
# Assay type: biochemical
# Details: recombinant cyclin-CDK2 complex (cyclin A or E, not specified); biotinylated Histone H1 peptide substrate; 1 hour at room temperature; read-out: CDK 2 IC50
row,SMILES,pIC50
1,CCc1cnn2c(NCc3cncnc3)nc(N3CCCC[C@H]3CCO)nc12,9.25
2,CCc1cnn2c(NCc3ccn(CC)c(=O)c3)nc(N3CCCC[C@H]3CCO)nc12,9.28
3,Cn1cc(CNc2nc(N3CCCC[C@H]3CCO)nc3c(C4CC4)cnn23)ccc1=O,8.51
4,CCc1cnn2c(Nc3ccc(S(C)(=O)=O)cc3)nc(N3CCCC[C@H]3CCO)nc12,6.97
5,CCc1cnn2c(NCc3ccnnc3)nc(N3CCCC[C@H]3CCO)nc12,8.92
6,CCc1cnn2c(NCc3cccnc3)nc(N3CCCC[C@H]3CCO)nc12,9.06
7,CCc1cnn2c(NCc3ccc(=O)n(C)c3)nc(N3CCCC[C@H]3CCO)nc12,9.32
